Measurements from patent US20260048052A1, “METHODS OF TREATING TENOSYNOVIAL GIANT CELL TUMORS” (Deciphera Pharmaceuticals, LLC, priority 2023, published 2026).
Values joined by “and” are separate entries in the source; they are usually repeats but may differ in a detail not shown here. Equal values may be shown once.

System: patients with TGCT not amenable to surgery
Assay: Phase 3, randomized, placebo-controlled, double-blind study of vimseltinib in patients with TGCT: efficacy
Format: in vivo, human
Protocol: This study is a two-part, randomized, double-blind, placebo-controlled study to assess the efficacy and safety of vimseltinib in patients with TGCT not amenable to surgery with no prior anti-CSF1/CSF1R therapy (prior therapy with imatinib or nilotinib allowed). In Part 1, patients (n=123) were randomized two-to-one to receive either 30 mg twice weekly of vimseltinib (n=83) or placebo (n=40) for 24 weeks. Vimseltinib or matching placebo was administered orally each week on day 1 and day 5 (±1 day) at approximately the same time of day on an empty stomach, with ≥24 hours between doses. An MRI of the affected joint was performed at screening, cycle 4 day 1 (week 13; ±7 days), and at the end of Part 1. Part 2 is an ongoing open-label study, in which patients from both the vimseltinib and placebo arms receive treatment with vimseltinib.
The primary endpoint of the study is the objective response rate (ORR) at Week 25 as measured by Response Evaluation Criteria in Solid Tumors (RECIST) version 1.1 by blinded independent radiologic review (IRR). Key secondary endpoints included the objective response rate at Week 25 by IRR per tumor volume score (TVS), active range of motion (ROM) at Week 25, PROMIS physical function (PROMIS-PF) score, worst stiffness numeric rating scale (NRS) score at Week 25, EQ-visual analogue scale (EQ-VAS) score at Week 25, and greater than or equal to 30% reduction in Brief Pain Inventory (BPI) in worst pain and less than 30% increase in narcotic use (BPI-30) at Week 25. Other secondary endpoints included duration of response (DOR) and safety.
Eligibility Criteria: Eligible patients were aged ≥18 years with a histologically confirmed diagnosis of TGCT for which surgical resection would potentially cause worsening functional limitation or severe morbidity. Patients had at least 1 measurable lesion ≥2 cm using Response Evaluation Criteria in Solid Tumors version 1.1 (RECIST v1.1), as assessed from magnetic resonance imaging (MRI) by a central radiologist.
Patients were excluded for receiving previous systemic therapy targeting CSF1 or CSF1R including vimseltinib; previous therapy with imatinib and/or nilotinib was allowed. Patients who received any therapy for TGCT (including investigational therapy) during screening, had major surgery 14 days prior to the first dose of study drug, or participated in a non-TGCT investigational drug study within 30 days of screening were also excluded.
Tumor volume score (TVS) is a semiquantitative magnetic resonance imaging scoring system that describes tumor mass. It is based on 10% increments of the estimated volume of the maximally distended involved synovial cavity or tendon sheath. Scores ranged from 0 to 10, and a tumor that was equal in volume to that of a maximally distended synovial cavity or tendon sheath was scored a 10; a score of 0 indicated no evidence of a tumor.
Complete response denoted disappearance of all tumor(s). Partial response was at least a 50% reduction from baseline in TVS. Progressive disease was at least a 30% increase in TVS from baseline. Stable disease was neither a sufficient decrease to qualify for partial response nor sufficient increase to qualify for progressive disease, taking the nadir as a reference. Response was considered not evaluable if the TVS could not be assessed for reasons such as inadequate or missing imaging.
Active range of motion (ROM; in degrees) was assessed using a goniometer and was normalized using a reference standard provided by the American Medical Association to compute the relative active ROM. In joints where more than one motion was measured, the motion with the smallest relative ROM value (worst) was used for evaluating subsequent changes in relative active ROM.
Response for PROMIS-PF, worst stiffness NRS, and EQ-VAS was a change from baseline ≥3, ≤−2, and ≥7, respectively. BPI worst pain response was defined as a ≥30% reduction in worst pain without a ≥30% increase in narcotic analgesic use. […]

[1] = 30 mg twice weekly, ITT N=83, Week 25
[2] = 30 mg twice weekly, ITT, Week 25

Cc1nc(-c2cnc(NC(C)C)n(C)c2=O)ccc1Oc1ccnc(-c2cnn(C)c2)c1 [Vimseltinib, 2-(isopropylamino)-3-methyl-5-(6-methyl-5-((2-(1-methyl-IH-pyrazol-4-yl)pyridin-4-yl)oxy)pyridin-2-yl)pyrimidin-4(3H)-one]
clinical benefit (CR+PR+SD), best percentage change in target lesions by IRR (30 mg twice weekly, FIG. 7A): Nearly all patients receiving vimseltinib experienced clinical benefit | BPI-30 Response in Worst Pain [1]: 40 (48) n (%) | CFB in EQ-VAS at Week 25, LS Mean [1]: 13.5 | CFB in Worst Stiffness NRS at Week 25, LS Mean [1]: −2.1 | CR by IRR per TVS [1]: 4 (5%) n (%) | Complete Response (CR) by IRR per RECIST 1.1 [1]: 4 (5%) n (%) | ORR at Week 25 by IRR per RECIST 1.1 [1]: 33 (40%) n (%) | ORR at Week 25 by IRR per RECIST v1.1 [1]: 40% | PR by IRR per TVS [1]: 52 (63%) n (%) | Partial Response (PR) by IRR per RECIST 1.1 [1]: 29 (35%) n (%) | Stable disease (SD) by IRR per RECIST 1.1 [1]: 42 (51%) n (%) | CFB in EQ-VAS at Week 25, Difference in LS Mean vs placebo [2]: 7.4 | CFB in Worst Stiffness NRS at Week 25, Difference in LS Mean vs placebo [2]: −1.8 | Difference in BPI-30 Response in Worst Pain vs placebo (95% CI) [2]: 26% and 26 (4, 42) % | Difference in ORR (vimseltinib vs placebo) by IRR per TVS [2]: 67% | Difference in ORR (vimseltinib vs. placebo) by IRR per RECIST 1.1 [2]: 40% | response rate in active ROM at Week 25 (30 mg twice weekly, N=79): 48% | response rate in PROMIS-PF at Week 25 (30 mg twice weekly, N=79, response = change from baseline ≥3): 43% | response rate in EQ-VAS at Week 25 (30 mg twice weekly, N=79, response = change from baseline ≥7): 37% | difference in response rate in EQ-VAS vs placebo (30 mg twice weekly, Week 25): 12% | difference in response rate in PROMIS-PF vs placebo (30 mg twice weekly, Week 25): 18% | difference in response rate in Worst Stiffness NRS vs placebo (30 mg twice weekly, Week 25): 24% | difference in response rate in active ROM vs placebo (30 mg twice weekly, Week 25): 28% | median duration of response by IRR per RECIST v1.1 (30 mg twice weekly, responders): not reached | median duration of response by IRR per TVS (30 mg twice weekly, responders): not reached | response rate in Worst Stiffness NRS at Week 25 (30 mg twice weekly, response = change from baseline ≤−2): 39% | BPI-30 response rate in Worst Pain at Week 25 (30 mg twice weekly, ≥30% reduction in BPI worst pain NRS and <30% increase in narcotic use): 48% | functional and symptomatic improvement across active ROM, PROMIS-PF, worst stiffness NRS, BPI worst pain (Week 25, versus placebo, FIG. 8): More patients experienced improvement in multiple measures | tumor responses, updated results (after 6 months): sustained tumor responses
